These results are taken from PMC6160541 (Frontiers in Chemistry, 2018).

One data set has as its system LNCaP. Put plainly: MTT cytotoxicity assay, LNCaP. The settings on record: 48 h. The class given is cell-based, human. How it is done:
(§1) We evaluated the cytotoxicity of 1c-6c, 1d-7d and of the positive control 1a-5a against a panel of human cancer cells using MTT (3-(4,5-dimethylthiazol-2-yl)-2,5-diphenyltetrazolium bromide) assay. The IC50 values were calculated based on three parallel experiments.
(§2) Cisplatin and oxaliplatin were purchased from Yurui Chemical Co. Ltd. (Shanghai, China). All of the other chemicals were obtained from commercial suppliers, such as Alfa […]
(§3) IonSpec QFT mass spectrometer with ESI ionization. 3-(4,5-dimethylthiazol-2-yl) […]
(§4) Phosphate-buffered saline (PBS) contains 137 mM
(§5) NaCl, 2.7 mM KCl, 10 mM Na2HPO4 and 2 mM KH2PO4. Fetal bovine serum (FBS), 0.25% trypsin/EDTA solution, and penicillin-streptomycin solution were purchased from […]
(§6) Invitrogen (Grand Island, NY, USA). […]
(§7) HeLa (cervical carcinoma cell line), MCF-7 (breast gland adenocarcinoma), LNCaP and PC3 (prostatic cancer), HepG-2 (hepatocellular carcinoma), A549 and A549R (lung carcinoma) were used for the MTT […]
(§8) In Vitro Cellular Cytotoxicity Assays
(§9) Cells seeded in 96-well plates were incubated in a 5% CO2 atmosphere in 100 µL of complete medium at 37 ℃ for 24 h. Then, 100 µL of freshly prepared culture medium containing drugs at different concentrations was added and incubated for another 48 h.
(§10) MTT (5 mg/mL, 20 µL) was added and incubated for 3 h. Finally, the medium was removed, and DMSO (150 µL) was added. The absorbance was measured at 570 nm using a Bio-Rad 680 microplate reader. The IC50 values were calculated using GraphPad […]
(§11) Prism software. […]
Background: Tetrazolium dyes change colour on reduction, which living cells bring about.

A further data set deals with HepG-2. The data set can be described thus: MTT cytotoxicity assay, HepG-2. The class given is cell-based, human. The settings on record: 48 h. How it is done: as §1, §2, §3, §4, §5, §6, §7, §8, §9, §10, §11
In a further data set the test system is HeLa. The data set can be described thus: MTT cytotoxicity assay, HeLa. To be noted: 48 h. Type of data set: cell-based, human. How it is done: as §1, §2, §3, §4, §5, §6, §7, §8, §9, §10, §11
The test system of another data set is MCF-7. Put plainly: MTT cytotoxicity assay, MCF-7. To be noted: 48 h. The class given is cell-based, human. As for the experimental part: as §1, §2, §3, §4, §5, §6, §7, §8, §9, §10, §11
The subject of another data set is A549. Put plainly: MTT cytotoxicity assay, A549. The class given is cell-based, human. To be noted: 48 h. How it is done:
as §1, §2, §3, §4, §5, §6, §7, §8, §9, §10, §11

The next data set has as its system PC3. Put plainly: MTT cytotoxicity assay, PC3. Type of data set: cell-based, human. The settings on record: 48 h. How it is done:
as §1, §2, §3, §4, §5, §6, §7, §8, §9, §10, §11

Details of data set [1]: method as in printed. To be noted: comparison values, ref not given; cited from earlier work.
A further data set has as its system A549R. Put plainly: MTT cytotoxicity assay, A549R (cisplatin-resistant). The class given is cell-based, human. The settings on record: for IC50: MTT, 48 h. As for the experimental part: as §1, §2, §3, §4, §5, §6, §7, §8, §9, §10, §11
A further data set relates to MDCK cells. Put plainly: MTT cytotoxicity with EDG, phloretin, Ctd. in MDCK cells. Type of data set: cell-based, canine. The settings on record: vs IC50 at 48 h. The text has this: Finally, Madin-Darby canine kidney (MDCK) cells, which are widely used to establish the model of the intestinal epithelium and to evaluate the oral administration and screening of substrates and inhibitors in vitro, were used to find a prodrug with the enhanced potential for oral administration. […] (Figure 10).

Data set [2] can be described thus: Stability in whole human blood. Type of data set: in vitro ADME. The text has this: (§12) One of the advantages of inert Pt(IV) prodrugs is their enhanced stability in RPMI 1640 and whole human blood.
For a further data set, the system named is 3T3. The data set can be described thus: Viability of normal cells 3T3, 48 h incubation assay. The class given is cell-based. How it is done: (§13) An ideal anticancer compound should be selective for cancer cells over normal healthy cells, thereby mitigating the undesired toxic side effects associated with chemotherapy.
(§14) Scheme 9. Synthetic route of 38b. Conditions and reagents: (a) Ac2O and NaOAc; (b) TMSN3, BF3OEt2, and DCM; (c) MeONa and MeOH rt overnight; (d) BnBr, NaH, and DMF overnight; (e) […]
(§15) Preparation of 46b and 47b
(§16) Compounds 46b (38%) and 47b (45%) were prepared according to the procedure described for compounds 20b and 21b, respectively.
(§17) Compound 48b (45%) was prepared according to the procedure described for compound […]
as §8
(§18) Cells seeded in 96-well plates were incubated in a 5% CO2 atmosphere in 100 µL of complete medium at 37 ℃ for 24 h. […]
(§19) MTT (5 mg/mL, 20 µL) was added and incubated for 3 h. […] The absorbance was measured at 570 nm using a Bio-Rad 680 microplate reader. The IC50 values were calculated using GraphPad Prism software. […]
(§20) For cytotoxicity assays using the GLUT1 inhibitor 4,6-O-ethylidene-α-D-glucose (EDG), phloretin and the OCT2 inhibitor Ctd., a similar procedure as described above was followed except that MCF-7 cells (3500 cells/well) were seeded on a 96 well plate in 100 µL of RPMI and incubated for 24 h at 37 °C. […] The cytotoxicity profiles of the compounds were evaluated using the MTT assay. […]

In another data set the test system is 293T. Put plainly: Viability of normal cells 293T, 48 h incubation assay. Type of data set: cell-based. How it is done:
as §13, §14, §15, §16, §17, §8, §18, §19, §20

Another data set can be described thus: Stability in RPMI 1640. The class given is physicochemical.
From the text: as §12

The next data set concerns MCF-7 cells. The data set can be described thus: MTT cytotoxicity with GLUT1 inhibitors (EDG, phloretin) and OCT2 inhibitor (Ctd.) in MCF-7 cells. The class given is cell-based, human. How it is done: For cytotoxicity assays, the GLUT1 inhibitors EDG (1) and phloretin (2), the OCT2 inhibitor Ctd. (cimetidine) (3), and the mixture of EDG and Ctd.(4) were selected to undergo a similar procedure as antitumor activity in vitro. MCF-7 cells were seeded on a 96 well plate in 100 μL of RPMI and were incubated for 24 h at 37°C, and EDG-containing RPMI medium, phloretin-containing RPMI medium and Ctd.-containing RPMI medium were used to render the serial dilution of the concentrated solutions of the platinum compounds, and 100 μL/well was added (resulting in final inhibitor concentrations of 75 mM, 100 μM and 3 mM). The cytotoxicity profiles of the compounds were evaluated using MTT assay. […]
as §8, §9
MTT (5 mg/mL, 20 µL) was added and incubated for 3 h. Finally, the medium was removed, and DMSO (150 µL) was added. The absorbance was measured at 570 nm using a Bio-Rad 680 microplate reader. The IC50 values were calculated using GraphPad Prism software. Technical repetitions and independent experiments were based on three […]
For cytotoxicity assays using the GLUT1 inhibitor 4,6-O-ethylidene-α-D-glucose (EDG), phloretin and the OCT2 inhibitor Ctd., a similar procedure as described above was followed except that MCF-7 cells (3500 cells/well) were seeded on a 96 well plate in 100 µL of RPMI and incubated for 24 h at 37 °C. EDG, phloretin and Ctd. containing RPMI medium were used for serial dilution of the concentrated solutions of the platinum compounds, and 100 µL/well were added (resulting in final inhibitor concentrations of 75 mM, 100 µM and 3 mM, respectively). The cytotoxicity profiles of the compounds were evaluated using the MTT assay. […]

Read-outs that look alike come from different tables or passages of the source.

What is called IC50 is the concentration that inhibits the measured activity by half. `CC(=O)[O][Pt]([NH2])([Cl])([Cl])([NH]C1CCCCC1)[O]C(C)=O` [5a, satraplatin, reference compound]: the concentration for half-maximal inhibition (IC50) in the data set with LNCaP was 5.23 ± 1.77 µM; in the data set with HepG-2 it was 6.7 ± 1.89 µM; with HeLa, 3.1 ± 0.89 µM; with MCF-7, 8.01 ± 0.56 µM; in the data set on A549, 2.17 ± 1.68 µM; in the data set on PC3 it was 16.8 ± 1.56 µM. In the data set with A549R, this compound yielded a half-maximal inhibitory concentration (IC50) of 9.96 ± 0.57 µM. For the same compound, in data set [1], the “t1/2 in whole human blood” value is reported as 6.3 min. In addition, the “RF: Resistance factor = IC50(A549R)/IC50(A549)” value in the data set on A549R stood at 4.59. In the data set on MDCK cells, the “effect of EDG, phloretin, Ctd. and EDG + Ctd. on IC50” value is listed as “no great differences”.

For `O=C(CCC(=O)[O][Pt-2]12([OH])([NH2+][C@@H]3CCCC[C@H]3[NH2+]1)[O]C(=O)C(=O)[O]2)NC[C@H]1OC(O)[C@H](O)[C@@H](O)[C@@H]1O` (some centres unmarked) [6d], the “t1/2 in whole human blood” value in [2] is given as about 2.5 h. In addition, the 50% inhibitory concentration (IC50) is 20 ± 0.79 µM in the data set on LNCaP; over 100 µM in the data set with 3T3; 4.1 ± 1.46 µM in the data set with HepG-2; 2.88 ± 0.67 µM in the data set with HeLa; 12.1 µM in the data set on 293T; 0.89 ± 1.34 µM with MCF-7. Besides, the 50% inhibitory concentration (IC50) is 29.9 ± 1.78 µM in the data set with A549; 66.6 ± 1.45 µM with PC3; 31.8 µM in the data set with MCF-7 cells (MCF-7, GLUT1 inhibitor EDG 75 mM, read-out: IC50 with EDG); 38.7 µM with MCF-7 cells (MCF-7, GLUT1 inhibitor phloretin 100 μM, read-out: IC50 with phloretin); 47 ± 1.69 µM in the data set on A549R. For the same compound, in the data set “Stability in RPMI 1640” (RPMI 1640), the half-life entry is “up to 170 h”. Further, the remained unchanged in “Stability in RPMI 1640” (RPMI 1640, after 48 h) is recorded as 66%. Moreover, the decomposition entry in “Stability in RPMI 1640” (RPMI medium, up to 12 h) was “No significant decomposition”. For the same compound, the “IC50 with EDG, folds higher than 48 h IC50” value with MCF-7 cells (MCF-7, EDG) was 36 fold. For the same compound, in the data set on MCF-7 cells (MCF-7, EDG + Ctd.), the “IC50 with mixture of EDG and Ctd., folds higher than 48 h IC50” value came out at 95 fold. For the same compound, the “IC50 with Ctd., folds higher than 48 h IC50” value in the data set on MCF-7 cells (MCF-7, OCT2 inhibitor Ctd. 3 mM) was 82 fold. Besides, the “IC50 with phloretin, folds higher than 48 h IC50” value in the data set with MCF-7 cells (MCF-7, phloretin) came out at 44 fold.
